Legend:
healthy adults = experiment: Double-blind, randomized, 3-way crossover, placebo- and active-control study of cardiovascular (QT/QTc) effects; format: in vivo, human; conditions: for Mean change from pretreatment baseline in QTc interval (mean ΔQTc), Bazett correction / Mean change from pretreatment baseline in QTc interval (mean ΔQTc), Individual Correction Method / Mean change from pretreatment baseline in QTc interval (mean ΔQTc), Fridericia correction: moxifloxacin 400 mg single oral dose; for Mean change from pretreatment baseline in QTc interval (mean ΔQTc), Fridericia correction: time-matched baseline Day 0; for Maximum decrease in QTc-F compared to baseline: individual subjects; for Reduction of the mean QTc-F interval compared to pretreatment baseline (Day 0): stated as reduction; for Maximum decrease in QTc-F compared to baseline / Number of subjects with QTc shortening between 30 and 60 ms compared to baseline: QTc-F
Description: (§1) The study of the cardiovascular effects of a carbamate compound of the present invention, shown as Formula 7 above, and hereafter referred to as “the test compound” was a single-center, double-blind, randomized, 3-way crossover, placebo- and active-control study. The test compound was studied at a dose of 1,500 mg/day (750 mg twice daily) both after acute dosing ([…], Day 1) and at steady state (Day 7). The study also evaluated the delayed post-treatment effects on Days 8-10. Moxifloxacin (400 mg, single oral dose) was used as an active control for the evaluation of QT/QTc on both Days 1 and 7.
(§2) Of the 38 subjects enrolled, 35 completed all 3 treatment conditions (placebo, moxifloxacin, test compound). Two subjects withdrew electively after receiving the first 3 days of the last treatment period (1 in moxifloxacin and 1 in test compound), and the last one withdrew because of an adverse event (respiratory tract infection) after the first treatment period (placebo), and before receiving any other treatment. Thus, all 38 subjects completed placebo treatment, 36 subjects completed the test compound treatment (and an additional subject provided data for Days 0 and 1 on test compound), and 36 completed moxifloxacin treatment (and 1 provided data for Days 0 and 1 on moxifloxacin). All 38 subjects were included in the safety evaluation; all collected drug level measurements and all available ECG recordings were included in data analyses.
The study population consisted of 38 healthy adults (20 men and 18 women), age 18 to 50 years, with normal 12-lead ECG (normal sinus rhythm, QTc and QRS intervals) and no history of cardiovascular disease. Of the 38 subjects enrolled, 35 completed all 3 treatment conditions (placebo, moxifloxacin, test compound). Two subjects withdrew electively after receiving the first 3 days of the last treatment period (1 in moxifloxacin and 1 in test compound), and the last one withdrew because of an adverse event (respiratory tract infection) after the first treatment period (placebo), and before receiving any.
as §2, with “The study population consisted of 38 healthy adults (20 men and 18 women), age 18 to 50 years, with normal 12-lead ECG (normal sinus rhythm, QTc and QRS intervals) and no history of cardiovascular disease. Of” for “Of”, “completed” for “completed the”
During each treatment period, 11 12-lead ECGs were collected at the same time of the day on Day 0 (baseline), Day 1 (initial treatment), and Day 7 (steady-state treatment); 4 additional ECGs were collected at exactly 24, 36, 48, and 72 hours after the last dose of Day 7 (post-treatment).
All ECG recordings of the same subject were read by the same blinded cardiologist. The QT intervals, from the onset of the QRS complex to the end of the T wave, were determined by the method of overlapping medians. The key QTc variables used in the assessment are listed below. The change from baseline (ΔQTc) was calculated using time-matched values. The following parameters were calculated for each subject and treatment by averaging over all time points during the 12-hour dosing interval. […]

[1] = Pharmacokinetics / drug level measurements in the crossover QT study; format: in vivo, human
Description: as §1
as §2, with “All 38 subjects were included in the safety evaluation; all collected drug level measurements and all available ECG recordings were included in data analyses.” left out

[2] = Day 1 (acute dosing), test compound 250 mg
[3] = Day 1 (acute dosing), test compound 250 mg, averaged over 12-hour dosing interval
[4] = Day 7 (steady state), test compound 1,500 mg/day (750 mg twice daily)

Row | Compound | Gender effect with regard to QTc reduction (healthy adults; 20 men and 18 women) | Mean change from pretreatment baseline in QTc interval (mean ΔQTc), Bazett correction (healthy adults; [2]) | Mean change from pretreatment baseline in QTc interval (mean ΔQTc), Individual Correction Method (healthy adults; [2]) | Mean change from pretreatment baseline in QTc interval (mean ΔQTc), Fridericia correction (healthy adults; [3]) | Mean change from pretreatment baseline in QTc interval (mean ΔQTc), Bazett correction (healthy adults; [4]) | Mean change from pretreatment baseline in QTc interval (mean ΔQTc), Individual Correction Method (healthy adults; [4]) | Mean change from pretreatment baseline in QTc interval (mean ΔQTc), Fridericia correction (healthy adults; [4]) | Delayed post-treatment effect on QT/QTc intervals (healthy adults; Days 8-10) | Maximum decrease in QTc-F compared to baseline (healthy adults) [ms] | Reduction of the mean QTc-F interval compared to pretreatment baseline (Day 0) (healthy adults; after initial treatment (Day 1)) [ms] | Reduction of the mean QTc-F interval compared to pretreatment baseline (Day 0) (healthy adults; at steady state (Day 7)) [ms] | Lowest QTc-F value (healthy adults; observed in 3 subjects (2 test compound, 1 placebo)) [ms] | Time after the last dose of Day 7 by which the QTc shortening effect disappeared (healthy adults; post-treatment ECGs at 24, 36, 48, 72 hours) [h] | Number of subjects with QTc-F slightly below 350 ms (healthy adults; steady state (Day 7)) [subjects] | Number of subjects with QTc shortening between 30 and 60 ms compared to baseline (healthy adults; steady state (Day 7)) [subjects] | Pharmacokinetics (linearity / dose proportionality) ([1]; after single- and multiple-dose administration) | Systemic exposure between the 2 single doses ([1]; 400 mg doses on Day 1 and Day 7)
1 | NC(=O)OC[C@@H](O)c1ccccc1Cl [test compound] | no gender effect | -3.2 ms | -3.7 ms | -3.1 ms | -7.4 ms | -12.1 ms | -11.2 ms | no apparent delayed post-treatment effect | 47 | 3.1 | 11.2 | 348 | ≤ 24 | 2 | 14 | linear and proportional | 
2 | COc1c(N2C[C@@H]3CCCN[C@@H]3C2)c(F)cc2c(=O)c(C(=O)O)cn(C3CC3)c12 [Moxifloxacin, reference compound] |  | +6.5 ms | +6.6 ms | +6.7 ms | +3.2 ms | +0.8 ms | +1.6 ms |  | 45 |  |  |  |  |  | 5 |  | consistent

Source: US7846968B2, “Methods for QT interval control” (Janssen Pharmaceutica, N.V., priority 2005, dated 2010)
